Results from US12371428B2 (Exelixis, Inc., priority 2019, dated 2025).
Counter-ions that a name gives are not always drawn.

How the values were obtained:
Assay type in all cases: cell-based
[1] = target: KDR (phospho-KDR, VEGF165-stimulated HUVEC cells) (Homo sapiens (Human), UniProt P35968); test: KDR autophosphorylation ELISA in HUVEC cells (Example G); conditions: cellular activity; KDR autophosphorylation ELISA in HUVEC cells
Outline: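 Inhibition of VEGF165-driven KDR autophosphorylation is measured in primary human umbilical vein endothelial cells after 24 h serum deprivation. Compound preincubation lasts 1 h before a 5-minute challenge with 100 ng/mL ligand, and phosphorylated receptor is then measured by ELISA in the lysates.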

[2] = target: Mer (phospho-Mer, MERTK-transfected 293A cells) (Homo sapiens (Human), UniProt Q12866); test: Mer autophosphorylation ELISA in transient transfected 293A cells (Example H); conditions: cellular activity; Mer autophosphorylation ELISA in transient transfected 293A cells
Outline: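 IC50 from phospho-Mer ELISA of MERTK-transfected 293A cell lysates after 1 h treatment with serially diluted compound in serum-free medium.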

[3] = target: Met (phospho-Met, HGF-stimulated PC-3 prostate cancer cells) (Homo sapiens (Human), UniProt P08581); test: Met autophosphorylation ELISA in PC-3 cells (Example F); conditions: cellular activity; Met autophosphorylation ELISA in PC-3 cells; read-out: c-Met IC50
Outline: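 PC-3 cells, serum-starved 3 h, were treated with compounds (8-point dose curve, 0.3% DMSO final) for 1 h, then stimulated with 100 ng/mL recombinant human HGF for 10 min. Lysate phospho-Met (panTyr) was quantified by sandwich ELISA; IC50 from 4-parameter logistic fit.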

Sequence of KDR (phospho-KDR, VEGF165-stimulated HUVEC cells) (P35968 20-1356): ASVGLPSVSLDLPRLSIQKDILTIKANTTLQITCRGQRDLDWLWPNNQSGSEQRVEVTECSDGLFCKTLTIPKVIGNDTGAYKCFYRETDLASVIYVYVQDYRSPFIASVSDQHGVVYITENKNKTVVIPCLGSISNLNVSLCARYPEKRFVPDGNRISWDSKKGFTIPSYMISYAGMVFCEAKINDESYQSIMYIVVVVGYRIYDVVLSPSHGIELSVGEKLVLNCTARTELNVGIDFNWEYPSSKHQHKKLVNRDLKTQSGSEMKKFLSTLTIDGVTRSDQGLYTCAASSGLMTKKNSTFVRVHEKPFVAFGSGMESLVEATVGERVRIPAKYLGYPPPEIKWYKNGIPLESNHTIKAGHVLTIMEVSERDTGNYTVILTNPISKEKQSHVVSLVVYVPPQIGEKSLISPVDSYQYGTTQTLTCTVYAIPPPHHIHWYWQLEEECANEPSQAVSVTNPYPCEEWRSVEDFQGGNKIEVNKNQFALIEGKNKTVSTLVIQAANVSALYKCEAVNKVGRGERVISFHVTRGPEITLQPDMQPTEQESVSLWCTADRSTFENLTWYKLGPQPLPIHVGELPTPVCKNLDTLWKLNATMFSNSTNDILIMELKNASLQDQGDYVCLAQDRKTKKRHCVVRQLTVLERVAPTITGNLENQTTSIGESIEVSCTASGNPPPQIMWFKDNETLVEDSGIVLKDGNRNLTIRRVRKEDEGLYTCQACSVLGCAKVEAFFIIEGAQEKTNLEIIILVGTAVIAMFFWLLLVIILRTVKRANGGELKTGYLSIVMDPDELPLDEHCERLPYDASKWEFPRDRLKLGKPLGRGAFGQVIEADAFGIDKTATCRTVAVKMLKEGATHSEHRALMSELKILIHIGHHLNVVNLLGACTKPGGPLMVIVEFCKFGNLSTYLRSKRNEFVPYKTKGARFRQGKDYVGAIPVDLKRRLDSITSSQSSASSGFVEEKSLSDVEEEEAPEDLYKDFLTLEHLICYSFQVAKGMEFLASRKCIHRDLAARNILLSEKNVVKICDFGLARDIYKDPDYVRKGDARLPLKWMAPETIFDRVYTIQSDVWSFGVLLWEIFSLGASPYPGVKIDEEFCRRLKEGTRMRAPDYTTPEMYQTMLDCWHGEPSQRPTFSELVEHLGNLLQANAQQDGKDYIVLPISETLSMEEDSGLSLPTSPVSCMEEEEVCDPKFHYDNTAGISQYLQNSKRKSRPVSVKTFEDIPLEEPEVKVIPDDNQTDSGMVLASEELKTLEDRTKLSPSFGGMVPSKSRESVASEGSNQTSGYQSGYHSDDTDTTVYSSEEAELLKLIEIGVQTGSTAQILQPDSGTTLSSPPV
Sequence of Mer (phospho-Mer, MERTK-transfected 293A cells) (Q12866 21-999): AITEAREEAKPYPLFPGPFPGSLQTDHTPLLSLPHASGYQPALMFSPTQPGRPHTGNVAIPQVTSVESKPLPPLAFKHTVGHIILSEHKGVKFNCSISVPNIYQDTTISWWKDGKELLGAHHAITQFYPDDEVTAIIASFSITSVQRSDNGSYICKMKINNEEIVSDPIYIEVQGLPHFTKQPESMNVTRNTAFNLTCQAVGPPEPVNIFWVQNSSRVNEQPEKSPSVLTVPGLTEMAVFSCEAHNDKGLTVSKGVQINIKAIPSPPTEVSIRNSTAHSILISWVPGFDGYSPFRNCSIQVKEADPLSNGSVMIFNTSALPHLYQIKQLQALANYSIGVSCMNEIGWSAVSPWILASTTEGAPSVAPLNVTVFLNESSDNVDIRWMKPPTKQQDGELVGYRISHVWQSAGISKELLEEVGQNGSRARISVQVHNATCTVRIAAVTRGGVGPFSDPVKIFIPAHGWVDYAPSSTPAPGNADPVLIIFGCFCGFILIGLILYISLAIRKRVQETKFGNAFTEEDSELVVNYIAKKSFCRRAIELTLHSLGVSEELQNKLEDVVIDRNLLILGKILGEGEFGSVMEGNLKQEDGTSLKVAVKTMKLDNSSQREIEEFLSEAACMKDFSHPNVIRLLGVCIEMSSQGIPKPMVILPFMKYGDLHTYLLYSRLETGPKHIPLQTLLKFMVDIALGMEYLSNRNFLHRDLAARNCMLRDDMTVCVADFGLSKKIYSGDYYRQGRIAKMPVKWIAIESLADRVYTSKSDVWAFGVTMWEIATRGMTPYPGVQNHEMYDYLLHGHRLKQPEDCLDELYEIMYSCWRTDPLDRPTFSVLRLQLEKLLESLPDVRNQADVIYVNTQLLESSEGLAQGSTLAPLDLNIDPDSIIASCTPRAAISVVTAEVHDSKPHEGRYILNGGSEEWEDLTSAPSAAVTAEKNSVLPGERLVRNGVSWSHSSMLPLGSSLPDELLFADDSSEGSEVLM
Sequence of Met (phospho-Met, HGF-stimulated PC-3 prostate cancer cells) (P08581 25-1390): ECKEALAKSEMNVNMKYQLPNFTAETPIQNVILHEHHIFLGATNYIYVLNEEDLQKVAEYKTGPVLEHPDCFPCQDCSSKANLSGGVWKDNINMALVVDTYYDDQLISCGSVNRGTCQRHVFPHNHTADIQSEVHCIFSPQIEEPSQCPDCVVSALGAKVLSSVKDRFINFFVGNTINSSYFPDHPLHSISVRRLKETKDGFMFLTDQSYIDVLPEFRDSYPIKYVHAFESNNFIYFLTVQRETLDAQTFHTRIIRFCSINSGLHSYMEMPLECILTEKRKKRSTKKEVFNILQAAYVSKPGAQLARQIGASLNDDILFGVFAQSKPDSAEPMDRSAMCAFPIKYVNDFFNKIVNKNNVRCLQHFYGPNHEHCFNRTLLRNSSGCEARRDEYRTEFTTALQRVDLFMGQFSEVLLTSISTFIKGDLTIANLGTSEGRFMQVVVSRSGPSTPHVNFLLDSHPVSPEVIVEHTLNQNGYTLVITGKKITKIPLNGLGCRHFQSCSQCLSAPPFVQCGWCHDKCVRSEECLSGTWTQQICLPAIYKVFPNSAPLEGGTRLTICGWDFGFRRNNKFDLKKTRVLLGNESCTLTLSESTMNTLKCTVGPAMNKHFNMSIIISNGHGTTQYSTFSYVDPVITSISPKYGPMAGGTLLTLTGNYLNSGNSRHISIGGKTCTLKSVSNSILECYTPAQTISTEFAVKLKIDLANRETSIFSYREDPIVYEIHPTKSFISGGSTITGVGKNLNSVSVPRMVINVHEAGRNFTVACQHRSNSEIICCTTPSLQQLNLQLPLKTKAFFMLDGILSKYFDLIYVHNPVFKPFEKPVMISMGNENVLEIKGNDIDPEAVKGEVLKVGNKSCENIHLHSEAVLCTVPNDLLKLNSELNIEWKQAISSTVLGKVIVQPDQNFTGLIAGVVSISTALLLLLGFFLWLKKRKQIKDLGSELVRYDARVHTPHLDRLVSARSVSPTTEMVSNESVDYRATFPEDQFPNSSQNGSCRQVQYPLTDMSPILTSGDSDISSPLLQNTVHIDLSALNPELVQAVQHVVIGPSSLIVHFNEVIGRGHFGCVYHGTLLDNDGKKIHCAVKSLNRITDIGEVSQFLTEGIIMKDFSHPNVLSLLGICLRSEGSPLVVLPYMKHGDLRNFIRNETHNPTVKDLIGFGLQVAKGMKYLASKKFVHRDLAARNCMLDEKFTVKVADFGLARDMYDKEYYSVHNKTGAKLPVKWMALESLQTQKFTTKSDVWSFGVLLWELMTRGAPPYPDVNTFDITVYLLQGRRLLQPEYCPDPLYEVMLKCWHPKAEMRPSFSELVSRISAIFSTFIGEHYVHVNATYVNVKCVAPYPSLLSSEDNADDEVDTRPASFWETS

Compound | IC50 [1] | IC50 [2] | IC50 [3]
COc1cnc2c(Oc3ccc(NC(=O)c4cn(C(C)C)c(C)c(-c5ccc(F)cc5)c4=O)cc3F)ccnc2c1 [Compound 121, N-[3-Fluoro-4-[(7-methoxy-1,5-naphthyridin-4-yl)oxy]phenyl]-5-(4-fluorophenyl)-6-methyl-4-oxo-1-propan-2-ylpyridine-3-carboxamide] | > 300 nM | < 100 nM | < 100 nM
CCn1cc(C(=O)Nc2ccc(Oc3ccnc4cc(OC)cnc34)cc2)c(=O)c(-c2ccc(F)cc2)c1C [Compound 163, 1-Ethyl-5-(4-fluorophenyl)-N-[4-[(7-methoxy-1,5-naphthyridin-4-yl)oxy]phenyl]-6-methyl-4-oxopyridine-3-carboxamide] | > 300 nM | < 100 nM | < 100 nM
Cc1nc2c(Oc3ccc(NC(=O)c4cn(C(C)C)c(C)c(-c5ccc(F)cc5)c4=O)cc3)ccnc2cc1-c1cccnc1 [Compound 613, 5-(4-Fluorophenyl)-6-methyl-N-[4-[(6-methyl-7-pyridin-3-yl-1,5-naphthyridin-4-yl)oxy]phenyl]-4-oxo-1-propan-2-ylpyridine-3-carboxamide hydrochloride] | > 300 nM | < 100 nM | < 100 nM
COc1cnc2c(Oc3ccc(NC(=O)c4cn(C(C)C)c(C)c(-c5ccc(F)cc5)c4=O)cc3)ccnc2c1 [Compound 148, 5-(4-Fluorophenyl)-N-[4-[(7-methoxy-1,5-naphthyridin-4-yl)oxy]phenyl]-6-methyl-4-oxo-1-propan-2-ylpyridine-3-carboxamide] | > 300 nM | < 100 nM | < 100 nM
COc1cnc2c(Oc3ccc(NC(=O)c4cn(C)c(C)c(-c5ccc(F)cc5)c4=O)cc3F)ccnc2c1 [Compound 156, N-[3-Fluoro-4-[(7-methoxy-1,5-naphthyridin-4-yl)oxy]phenyl]-5-(4-fluorophenyl)-1,6-dimethyl-4-oxopyridine-3-carboxamide] | > 300 nM | < 100 nM | < 100 nM
COc1cnc2c(Oc3ccc(NC(=O)c4cn(C)c(OC)c(-c5ccc(F)cc5)c4=O)cc3F)ccnc2c1 [Compound 587, N-[3-Fluoro-4-[(7-methoxy-1,5-naphthyridin-4-yl)oxy]phenyl]-5-(4-fluorophenyl)-6-methoxy-1-methyl-4-oxopyridine-3-carboxamide] | > 300 nM | < 100 nM | < 100 nM

More lines, now with the values ahead:

IC50 [1] | IC50 [2] | IC50 [3] | Compound
> 300 nM | < 100 nM | < 100 nM | COc1cc2nccc(Oc3ccc(NC(=O)c4cn(C(C)C)c(C)c(-c5ccc(F)cc5)c4=O)cc3F)c2nc1O [Compound 580, N-[3-Fluoro-4-[(6-hydroxy-7-methoxy-1,5-naphthyridin-4-yl)oxy]phenyl]-5-(4-fluorophenyl)-6-methyl-4-oxo-1-propan-2-ylpyridine-3-carboxamide]
> 300 nM | < 100 nM | < 100 nM | COc1cnc2c(Oc3ccc(NC(=O)c4cn(C(C)C)cc(-c5ccc(F)cc5)c4=O)cc3F)ccnc2c1 [Compound 123, N-[3-Fluoro-4-[(7-methoxy-1,5-naphthyridin-4-yl)oxy]phenyl]-5-(4-fluorophenyl)-4-oxo-1-propan-2-ylpyridine-3-carboxamide]
< 100 nM | < 100 nM | < 100 nM | COc1cc2nccc(Oc3ccc(NC(=O)c4cnc(C)c(-c5ccc(F)cc5)c4O)cc3)c2cc1OC [Compound 171, N-[4-(6,7-Dimethoxyquinolin-4-yl)oxyphenyl]-5-(4-fluorophenyl)-4-hydroxy-6-methylpyridine-3-carboxamide]
> 300 nM | < 100 nM | < 100 nM | Cc1nc2c(Oc3ccc(NC(=O)c4cn(C(C)C)c(C)c(-c5ccc(F)cc5)c4=O)cc3F)ccnc2cc1Br [Compound 153, N-[4-[(7-Bromo-6-methyl-1,5-naphthyridin-4-yl)oxy]-3-fluorophenyl]-5-(4-fluorophenyl)-6-methyl-4-oxo-1-propan-2-ylpyridine-3-carboxamide]
< 100 nM | < 100 nM | < 100 nM | COc1cc2nccc(Oc3ccc(NC(=O)c4cn(CCO)c(C)c(-c5ccc(F)cc5)c4=O)cc3F)c2nc1OC [Compound 619, N-[4-[(6,7-Dimethoxy-1,5-naphthyridin-4-yl)oxy]-3-fluorophenyl]-5-(4-fluorophenyl)-1-(2-hydroxyethyl)-6-methyl-4-oxopyridine-3-carboxamide]
